In patent US20190387748A1, “COMPOSITIONS AND RELATED METHODS FOR AGRICULTURE” (priority 2017, published 2019):
Entries after “also recorded” stand apart in the source; their conditions may differ.

Legend:
[1] = system: Sitophilus zeamais weevils; test: Weevil survival monitoring; format: in vivo; conditions: adult S. zeamais mating pairs; 250 μg/ml or 2.5 mg/ml ciprofloxacin; 18 days
[2] = system: Sitophilus zeamais weevils; test: Assessment of offspring: dissection of corn kernels (F1 weevil development); format: in vivo; conditions: after 25 days
Escherichia coli DH5α = conditions: kernels soaked in 2.5 or 0.25 mg/ml ciprofloxacin; overnight
Procedure: The kernels were soaked for 1.5 hours as described herein. After soaking, kernels were air dried and assayed to determine whether the antibiotic was able to coat and penetrate the kernel. To test this, a concentrated sample of Escherichia coli DH5α in water was spread onto 5 Luria Broth (LB) plates. […] The plates were incubated overnight at 37 degrees C. and bacterial growth and/or zone(s) of inhibition were assessed the next day.
A concentrated culture of E. coli was then spread onto LB plates and one of the coated kernels was then placed onto the center of the plate. The plates were incubated overnight, and bacterial growth was assessed the next day.
The plates were incubated overnight and the next day bacterial growth was assessed.

[3] = system: Sitophilus zeamais weevils; test: Emergence of F1 weevils (fecundity); conditions: 2.5 mg/ml ciprofloxacin; till day 43
[4] = system: Acyrthosiphon pisum aphids; test: Aphid survival monitoring; format: in vivo
Source text: For each treatment, 33 aphids were placed onto each leaf. Artificial diet feeding systems were changed every 2-3 days throughout the experiment. Aphids were monitored daily for survival and dead aphids were removed from the deep petri dish housing the artificial feeding system when they were discovered.
(§1) Each treatment group received approximately the same number of individuals from each of the collection plant. For each treatment, 20 aphids were placed onto each leaf. Aphids were monitored daily for survival and dead aphids were removed when they were discovered. In addition, the developmental stage (1st, 2nd, 3rd, 4th, 5th instar, and 5R, representing a reproducing 5th instar) was determined daily throughout the experiment. Pictures of aphids were taken throughout the experiment to evaluate size differences between treatment groups.
(Vroma vicia faba from Johnny's Selected Seeds) in a climate-controlled incubator (16 h light/8 h dark photoperiod; 60±5% RH; 25±2° C.). Prior to being used for aphid rearing, fava bean plants were grown in potting soil at 24° C. with 16 h of light and 8 h of darkness. To limit maternal effects or health differences between plants, 5-10 adults from different plants were distributed among 10 two-week-old plants, and allowed to multiply to high density for 5-7 days. For experiments, first and second instar aphids were collected from healthy plants and divided into 2 different treatment groups: 1) negative control (leaf injected with water plus blue food coloring) and 2) leaf injected with 50 μg/ml rifampicin in water plus blue food coloring. Each treatment group received approximately the same number of individuals from each of the collection plants. For treatment, rifampicin stock solution (25 mg/ml in 100% methanol) was diluted to 50 μg/ml in water plus blue food coloring. The solution was then placed into a 1.5 ml Eppendorf tube with a fava bean stem perfused with the solutions and the opening of the tube was closed using parafilm. This feeding system was then placed into a deep petri dish (Fisher Scientific, Cat# FB0875711) and aphids were applied to the leaves of the plant. For each treatment, 74-81 aphids were placed onto each leaf. The feeding systems were changed every 2-3 days throughout the experiment. Aphids were monitored daily for survival and dead aphids were removed from the deep petri dish when they were discovered. In addition, the developmental stage (1st, 2nd, 3rd, 4th, 5th and 5R (5th that has reproduced) instar) was determined daily throughout the experiment.
For each treatment, 49-50 aphids were placed onto each leaf. The feeding systems were changed every 2-3 days throughout the experiment. Aphids were monitored daily for survival and dead aphids were removed from the deep petri dish when they were discovered.
For each treatment, 76-80 aphids were placed onto each leaf. The feeding systems were changed every 2-3 days throughout the experiment. Aphids were monitored daily for survival and dead aphids were removed from the deep petri dish when they were discovered.
For each treatment, 50-51 aphids were placed onto each leaf. The feeding systems were changed every 2-3 days throughout the experiment. Aphids were monitored daily for survival and dead aphids were removed from the deep petri dish when they were discovered.
For each treatment, 56-59 aphids were placed onto each leaf. The feeding systems were changed every 2-3 days throughout the experiment. Aphids were monitored daily for survival and dead aphids were removed from the deep petri dish when they were discovered.
For each treatment, 57-59 aphids were placed onto each leaf. The feeding systems were changed every 2-3 days throughout the experiment. Aphids were monitored daily for survival and dead aphids were removed from the deep petri dish when they were discovered.
For each treatment, 15-87 aphids were placed onto each leaf. Artificial diet feeding systems were changed every 2-3 days throughout the experiment.

Buchnera = test: qPCR of Buchnera/aphid DNA copy numbers (symbiont titer); format: in vivo, Buchnera aphidicola
Procedure: (§2) After 7 days of treatment, DNA was extracted from multiple aphids from each treatment group. Briefly, the aphid body surface was sterilized by dipping the aphid into a 6% bleach solution for approximately 5 seconds. Aphids were then rinsed in sterile water and DNA was extracted from each individual aphid using a DNA extraction kit (Qiagen, DNeasy kit) according to manufacturer's instructions. DNA concentration was measured using a nanodrop nucleic acid quantification, and Buchnera and aphid DNA copy numbers were measured by qPCR.
After 6 days of treatment, DNA was extracted from multiple aphids from each treatment group and qPCR for quantifying Buchnera levels was done as described in the previous Example.
as §2, with “8” for “7”
as §2, with “After 8” for “After 7”, “from the remaining” for “from multiple”, “aphids in” for “aphids from”
as §2, with “Briefly,” for “After 7 days of treatment, DNA was extracted from multiple aphids from each treatment group. Briefly,”
as §2, with “Briefly,” for “After 7 days of treatment, DNA was extracted from multiple aphids from each treatment group. Briefly,”
as §2, with “3” for “7”, “the remaining living” for “multiple”
as §2, with “After 5” for “After 7”, “from the remaining” for “from multiple”, “aphids in” for “aphids from”
At 5 days post-treatment, DNA was extracted from several aphids in each treatment group. Briefly, the aphid body surface was sterilized by dipping the aphid into a 6% bleach solution for approximately 5 seconds.

[5] = system: Acyrthosiphon pisum aphids; test: Aphid developmental stage monitoring; format: in vivo
Procedure: (§3) In addition, the developmental stage (1st, 2nd, 3rd, 4th, 5th instar) was determined daily throughout the experiment. Once an aphid reached the 4th instar stage, they were given their own artificial feeding system in a deep petri dish so that fecundity could be monitored once they reached adulthood.
as §1
(Vroma vicia faba from Johnny's Selected Seeds) in a climate-controlled incubator (16 h light/8 h dark photoperiod; 60±5% RH; 25±2° C.). Prior to being used for aphid rearing, fava bean plants were grown in potting soil at 24° C. with 16 h of light and 8 h of darkness. To limit maternal effects or health differences between plants, 5-10 adults from different plants were distributed among 10 two-week-old plants, and allowed to multiply to high density for 5-7 days. […] Aphids were monitored daily for survival and dead aphids were removed from the deep petri dish when they were discovered. In addition, the developmental stage (1st, 2nd, 3rd, 4th, 5th and 5R (5th that has reproduced) instar) was determined daily throughout the experiment.
In addition, the developmental stage (1st, 2nd, 3rd, 4th, 5th, and 5R (5th that has reproduced) instar) was determined daily throughout the experiment.
In addition, the developmental stage (1st, 2nd, 3rd, 4th, 5th, and 5R (5th instar aphids that are reproducing) instar) was determined daily throughout the experiment.
In addition, the developmental stage (1st, 2nd, 3rd, 4th, and 5th instar) was determined daily throughout the experiment.
as §3, with “5th, and 5R (5th that has reproduced)” for “5th”
For each treatment, 30 aphids were placed onto each leaf in triplicate. […] Aphids were monitored daily for survival and dead aphids were removed from the deep petri dish when they were discovered. In addition, the developmental stage (1st, 2nd, 3rd, 4th, 5th, and 5R (5th instar aphids that are reproducing) instar) was determined daily throughout the experiment. […]

[6] = synthetic cationic NCR peptides; cited from earlier work
[7] = system: gram-negative and gram-positive bacteria as well as fungi; conditions: cited from earlier work

In the case of `O=C(O)c1cn(C2CC2)c2cc(N3CCNCC3)c(F)cc2c1=O` [ciprofloxacin], the Weevil survival [1] is reported as “all weevils remained alive for the course of the experiment”, the “Number of offspring found in dissected corn kernels” value ([2]; 250 ug/ml ciprofloxacin) is reported as 13 and the “Offspring in the larval form” value ([2]; 250 ug/ml ciprofloxacin) is reported as 38%. The “Number of offspring found in dissected corn kernels” value ([2]; 2.5 mg/ml ciprofloxacin) was 20, the “Offspring in the larval form” value ([2]; 2.5 mg/ml ciprofloxacin) was 65% and the “E. coli growth on plates with entire soaked corn kernels” value (Escherichia coli DH5α) was “no bacteria grew”. The F1 offspring emerged [3] was “much less offspring that emerged”.

In the case of `Cc1cc2c(C(C)C)c(O)c(O)c(C=O)c2c(O)c1-c1c(C)cc2c(C(C)C)c(O)c(O)c(C=O)c2c1O` [gossypol, gossypol acetic acid], the “Time by which all aphids succumbed to treatment” value ([4]; 0.5% gossypol) is reported as no more than 4 days, the “Time of treatment after which aphids began dying” value ([4]; 0.5% gossypol) is reported as 2 days and the “Fold less Buchnera/aphid DNA copies vs control” value (Buchnera; 0.25 and 0.5% of gossypol, through plants, 5 or 13 days) is reported as roughly 4 fold.

With `CC(=O)CCC(=O)O` [levulinic acid] the Aphid development ([5]; 0.03 or 0.3% levulinic acid) was “delayed aphid development”, the Aphid mortality ([4]; 0.03% levulinic acid, 11-day experiment) was “higher mortality compared to control treated aphids, although the difference did not reach statistical significance” and the Insect survival ([4]; 0.03 or 0.3% levulinic acid) was “decrease in insect survival”. For the same compound, the Aphid survival ([4]; 0.3% levulinic acid, 11-day experiment) was “survival was significantly less”, the “Fold less Buchnera/aphid DNA copies vs control” value (Buchnera; 0.03 or 0.3% levulinic acid in water, 7 days of treatment) was roughly 6 fold and the Buchnera/aphid ratio (Buchnera; 0.03 or 0.3% levulinic acid, seven and eleven days post-treatment) was “reduced endosymbiotic Buchnera”.

For `O=C/C=C/c1ccccc1` [trans-cinnemaldehyde], the Aphid developmental stage ([5]; LSR-1 1st and 2nd instar, 0.05%, 0.5%, 5% trans-cinnemaldehyde in water, leaf perfusion and through plants, by 3 days) was “delayed aphid development; also recorded: none of the aphids matured past the second instar stage”, the Aphid survival rate ([4]; 0.05%, 0.5%, and 5% trans-cinnemaldehyde) was “dose-dependent decrease in survival; also recorded: significantly lower” and the “Symbiont titer (Buchnera DNA to aphid DNA)” value (Buchnera; 0.05%, 0.5%, and 5% trans-cinnemaldehyde, 3 days post-treatment) was “reduced endosymbiotic Buchnera”. The “Fold less Buchnera/aphid DNA copies vs control” value (Buchnera; 0.5 and 5% of trans-cinnemaldehyde, 3 days) was roughly 870 fold and the “Buchnera/aphid DNA copies” value (Buchnera; lowest concentration of trans-cinnemaldehyde (0.5%), 3 days) was “high ratios of Buchnera/aphid DNA copies”.

In the case of “NCR335: cationic nodule C-rich peptide (RQMIILRLNTTFRPLNFKMLRFWGQ)”, the pl [6] is listed as 11.22 and the Antimicrobial activity [7] is listed as “effective against gram-negative and gram-positive bacteria as well as fungi”.
